From patent US4746349A, “Method and compositions for suppressing the nitrification of ammonium in plant growth medium” (American Cyanamid Company, priority 1986, dated 1988)
Counter-ions that a name gives are not always drawn.

What was measured:
Nitrosomonas spp. = assay: Nitrification of ammonium in soil incubated at 25° C. (ammonium recovery, nitrate accumulation); settings: soil 25° C.; for Concentration of nitrate nitrogen / Recovery of Ammonium Nitrogen: 200 ppm N; for Specific inhibition of nitrification through activity against Nitrosomonas spp., in words: 0.1 to 0.5 ppm
Description: In these evaluations, one hundred grams (100 g) of oven dry, silt loam field soil with low residual nitrogen is added to a 6×12 cm screw-capped glass jar for each sampling date to provide an optimum environment for nitrification.
Two replicates of each treatment-sampling date are established. The soil is adjusted to 50% water saturation with an aqueous solution of ammonium sulfate at 200 ppm N and the chemical to be tested as a nitrification inhibitor at rates of from 0.10 to 0.50 ppm.
Incubation is at either 25° C. or 38° C. for 0, 1, 2, 4, 7, 9, 12, 16 or 20 weeks. Inorganic N is extracted by adding 2M KCl (10:1 v/w) and shaking for one hour, allowing settling for fifteen minutes. A 10 ml aliquot from the supernatant is assayed for ammonium, nitrite and nitrate by standard steam distillation methods (AOAC, pp. 653-655). Nitrapyrin (0.5 ppm) is used as a nitrification inhibitor for comparison. Benzyl alcohol, acetone, and a non-N amended soil are run as controls and as a check on mineralization.
Nitrification: Ammonium recovery and nitrate accumulation are indicative of nitrification, and data obtained with test compounds are reported in Tables I and II.

Nitrobacter spp. = assay: Nitrite nitrogen in ammonium amended soil incubated at 25° C.; settings: soil 25° C., 200 ppm N
Description: Determination of nitrite nitrogen and nitrate nitrogen in soil prepared in Example 1 above, which is amended with 200 ppm of nitrogen as aqueous ammonium sulfate, […], is determined using the nitrite and nitrate analysis of the American Organization of Analytical Chemists (AOAC pp. 653-655).

CC[C@@]1([C@@H]2O[C@@H]([C@H]3O[C@@](O)(CO)[C@H](C)C[C@@H]3C)C[C@@H]2C)CC[C@H]([C@]2(C)CC[C@]3(C[C@H](O)[C@@H](C)[C@@H]([C@@H](C)[C@@H](OC)[C@H](C)C(=O)O)O3)O2)O1 [Monensin sodium salt, Monensin]
Concentration of nitrate nitrogen (Nitrosomonas spp.; 0.10 ppm, week 0): 18 PPM
Concentration of nitrate nitrogen (Nitrosomonas spp.; 0.10 ppm, week 1): 17 PPM
Recovery of Ammonium Nitrogen (Nitrosomonas spp.; 0.10 ppm, week 1): 175 PPM
Concentration of nitrate nitrogen (Nitrosomonas spp.; 0.10 ppm, week 2): 17 PPM
Recovery of Ammonium Nitrogen (Nitrosomonas spp.; 0.10 ppm, week 2): 175 PPM
Concentration of nitrate nitrogen (Nitrosomonas spp.; 0.10 ppm, week 4): 45 PPM
Recovery of Ammonium Nitrogen (Nitrosomonas spp.; 0.10 ppm, week 4): 155 PPM
Concentration of nitrate nitrogen (Nitrosomonas spp.; 0.10 ppm, week 7): 199 PPM
Recovery of Ammonium Nitrogen (Nitrosomonas spp.; 0.10 ppm, week 7): 17 PPM
Concentration of nitrate nitrogen (Nitrosomonas spp.; 0.10 ppm, week 9): 220 PPM
Recovery of Ammonium Nitrogen (Nitrosomonas spp.; 0.10 ppm, week 9): 3 PPM
Concentration of nitrate nitrogen (Nitrosomonas spp.; 0.10 ppm, week 12): 206 PPM
Recovery of Ammonium Nitrogen (Nitrosomonas spp.; 0.10 ppm, week 12): 2 PPM
Concentration of nitrate nitrogen (Nitrosomonas spp.; 0.10 ppm, week 16): 213 PPM
Recovery of Ammonium Nitrogen (Nitrosomonas spp.; 0.10 ppm, week 16): 5 PPM
Specific inhibition of nitrification through activity against Nitrosomonas spp., in words (Nitrosomonas spp.): appear to specifically inhibit nitrification through activity against Nitrosomonas spp.
Concentration of nitrate nitrogen (Nitrosomonas spp.; 0.25 ppm, week 0): 19 PPM
Concentration of nitrate nitrogen (Nitrosomonas spp.; 0.25 ppm, week 1): 22 PPM
Recovery of Ammonium Nitrogen (Nitrosomonas spp.; 0.25 ppm, week 1): 179 PPM
Concentration of nitrate nitrogen (Nitrosomonas spp.; 0.25 ppm, week 2): 21 PPM
Concentration of nitrate nitrogen (Nitrosomonas spp.; 0.25 ppm, week 4): 23 PPM
Concentration of nitrate nitrogen (Nitrosomonas spp.; 0.25 ppm, week 7): 28 PPM
Concentration of nitrate nitrogen (Nitrosomonas spp.; 0.25 ppm, week 9): 54 PPM
Recovery of Ammonium Nitrogen (Nitrosomonas spp.; 0.25 ppm, week 9): 157 PPM
Concentration of nitrate nitrogen (Nitrosomonas spp.; 0.25 ppm, week 12): 70 PPM
Recovery of Ammonium Nitrogen (Nitrosomonas spp.; 0.25 ppm, week 12): 124 PPM
Concentration of nitrate nitrogen (Nitrosomonas spp.; 0.25 ppm, week 16): 158 PPM
Recovery of Ammonium Nitrogen (Nitrosomonas spp.; 0.25 ppm, week 16): 74 PPM
Concentration of nitrate nitrogen (Nitrosomonas spp.; 0.25 ppm, week 20): 121 PPM
Recovery of Ammonium Nitrogen (Nitrosomonas spp.; 0.25 ppm, week 20): 21 PPM
Concentration of nitrate nitrogen (Nitrosomonas spp.; 0.50 ppm, week 0): 18 PPM
Concentration of nitrate nitrogen (Nitrosomonas spp.; 0.50 ppm, week 1): 18 PPM
Recovery of Ammonium Nitrogen (Nitrosomonas spp.; 0.50 ppm, week 1): 176 PPM
Concentration of nitrate nitrogen (Nitrosomonas spp.; 0.50 ppm, week 2): 21 PPM
Concentration of nitrate nitrogen (Nitrosomonas spp.; 0.50 ppm, week 4): 22 PPM
Concentration of nitrate nitrogen (Nitrosomonas spp.; 0.50 ppm, week 7): 23 PPM
Concentration of nitrate nitrogen (Nitrosomonas spp.; 0.50 ppm, week 9): 19 PPM
Concentration of nitrate nitrogen (Nitrosomonas spp.; 0.50 ppm, week 12): 22 PPM
Concentration of nitrate nitrogen (Nitrosomonas spp.; 0.50 ppm, week 16): 121 PPM
Recovery of Ammonium Nitrogen (Nitrosomonas spp.; 0.50 ppm, week 16): 110 PPM
Concentration of nitrate nitrogen (Nitrosomonas spp.; 0.50 ppm, week 20): 72 PPM
Recovery of Ammonium Nitrogen (Nitrosomonas spp.; 0.50 ppm, week 20): 143 PPM
Concentration of nitrite nitrogen (Nitrobacter spp.; 0.10 ppm, week 0): 9 ppm
Concentration of nitrite nitrogen (Nitrobacter spp.; 0.10 ppm, week 1): -4 ppm
Concentration of nitrite nitrogen (Nitrobacter spp.; 0.10 ppm, week 2): 4 ppm
Concentration of nitrite nitrogen (Nitrobacter spp.; 0.10 ppm, week 4): 11 ppm
Concentration of nitrite nitrogen (Nitrobacter spp.; 0.10 ppm, week 7): 7 ppm
Concentration of nitrite nitrogen (Nitrobacter spp.; 0.10 ppm, week 9): 16 ppm
Concentration of nitrite nitrogen (Nitrobacter spp.; 0.10 ppm, week 12): 18 ppm
Concentration of nitrite nitrogen (Nitrobacter spp.; 0.10 ppm, week 16): 7 ppm
Concentration of nitrite nitrogen (Nitrobacter spp.; 0.10 ppm, week 20): 11 ppm
Concentration of nitrite nitrogen (Nitrobacter spp.; 0.25 ppm, week 0): 6 ppm
Concentration of nitrite nitrogen (Nitrobacter spp.; 0.25 ppm, week 1): 3 ppm
Concentration of nitrite nitrogen (Nitrobacter spp.; 0.25 ppm, week 2): 6 ppm
Concentration of nitrite nitrogen (Nitrobacter spp.; 0.25 ppm, week 4): 7 ppm
Concentration of nitrite nitrogen (Nitrobacter spp.; 0.25 ppm, week 7): -4 ppm
Concentration of nitrite nitrogen (Nitrobacter spp.; 0.25 ppm, week 9): 17 ppm
Concentration of nitrite nitrogen (Nitrobacter spp.; 0.25 ppm, week 12): 30 ppm
Concentration of nitrite nitrogen (Nitrobacter spp.; 0.25 ppm, week 16): 3 ppm
Concentration of nitrite nitrogen (Nitrobacter spp.; 0.25 ppm, week 20): 90 ppm
Concentration of nitrite nitrogen (Nitrobacter spp.; 0.50 ppm, week 0): 6 ppm
Concentration of nitrite nitrogen (Nitrobacter spp.; 0.50 ppm, week 1): 5 ppm
Concentration of nitrite nitrogen (Nitrobacter spp.; 0.50 ppm, week 2): 6 ppm
Concentration of nitrite nitrogen (Nitrobacter spp.; 0.50 ppm, week 4): 0 ppm
Concentration of nitrite nitrogen (Nitrobacter spp.; 0.50 ppm, week 7): 2 ppm
Concentration of nitrite nitrogen (Nitrobacter spp.; 0.50 ppm, week 9): -7 ppm
Concentration of nitrite nitrogen (Nitrobacter spp.; 0.50 ppm, week 12): 4 ppm
Concentration of nitrite nitrogen (Nitrobacter spp.; 0.50 ppm, week 16): 2 ppm
Concentration of nitrite nitrogen (Nitrobacter spp.; 0.50 ppm, week 20): 22 ppm

CC[C@@H](C(=O)[C@@H](C)[C@@H](O)[C@H](C)[C@@H]1O[C@@H]([C@@H](CC)C(=O)O)CC[C@@H]1C)[C@H]1O[C@]2(C=C[C@@H](O)[C@]3(CC[C@@](C)([C@H]4CC[C@](O)(CC)[C@H](C)O4)O3)O2)[C@H](C)C[C@@H]1C [Salinomycin monosodium salt, Salinomycin]
Concentration of nitrate nitrogen (Nitrosomonas spp.; 0.10 ppm, week 0): 18 PPM
Recovery of Ammonium Nitrogen (Nitrosomonas spp.; 0.10 ppm, week 0): 194 PPM
Concentration of nitrate nitrogen (Nitrosomonas spp.; 0.10 ppm, week 1): 20 PPM
Recovery of Ammonium Nitrogen (Nitrosomonas spp.; 0.10 ppm, week 1): 171 PPM
Concentration of nitrate nitrogen (Nitrosomonas spp.; 0.10 ppm, week 2): 20 PPM
Recovery of Ammonium Nitrogen (Nitrosomonas spp.; 0.10 ppm, week 2): 183 PPM
Concentration of nitrate nitrogen (Nitrosomonas spp.; 0.10 ppm, week 4): 26 PPM
Recovery of Ammonium Nitrogen (Nitrosomonas spp.; 0.10 ppm, week 4): 184 PPM
Concentration of nitrate nitrogen (Nitrosomonas spp.; 0.10 ppm, week 7): 27 PPM
Recovery of Ammonium Nitrogen (Nitrosomonas spp.; 0.10 ppm, week 7): 136 PPM
Concentration of nitrate nitrogen (Nitrosomonas spp.; 0.10 ppm, week 9): 201 PPM
Recovery of Ammonium Nitrogen (Nitrosomonas spp.; 0.10 ppm, week 9): 3 PPM
Concentration of nitrate nitrogen (Nitrosomonas spp.; 0.10 ppm, week 12): 219 PPM
Recovery of Ammonium Nitrogen (Nitrosomonas spp.; 0.10 ppm, week 12): 10 PPM
Concentration of nitrate nitrogen (Nitrosomonas spp.; 0.10 ppm, week 16): 233 PPM
Recovery of Ammonium Nitrogen (Nitrosomonas spp.; 0.10 ppm, week 16): 5 PPM
Recovery of Ammonium Nitrogen (Nitrosomonas spp.; 0.10 ppm, week 20): 0 PPM
Specific inhibition of nitrification through activity against Nitrosomonas spp., in words (Nitrosomonas spp.): appear to specifically inhibit nitrification through activity against Nitrosomonas spp.
Concentration of nitrate nitrogen (Nitrosomonas spp.; 0.25 ppm, week 0): 19 PPM
Recovery of Ammonium Nitrogen (Nitrosomonas spp.; 0.25 ppm, week 0): 193 PPM
Concentration of nitrate nitrogen (Nitrosomonas spp.; 0.25 ppm, week 1): 23 PPM
Recovery of Ammonium Nitrogen (Nitrosomonas spp.; 0.25 ppm, week 1): 176 PPM
Concentration of nitrate nitrogen (Nitrosomonas spp.; 0.25 ppm, week 2): 22 PPM
Recovery of Ammonium Nitrogen (Nitrosomonas spp.; 0.25 ppm, week 2): 189 PPM
Concentration of nitrate nitrogen (Nitrosomonas spp.; 0.25 ppm, week 4): 23 PPM
Recovery of Ammonium Nitrogen (Nitrosomonas spp.; 0.25 ppm, week 4): 185 PPM
Concentration of nitrate nitrogen (Nitrosomonas spp.; 0.25 ppm, week 7): 45 PPM
Recovery of Ammonium Nitrogen (Nitrosomonas spp.; 0.25 ppm, week 7): 167 PPM
Concentration of nitrate nitrogen (Nitrosomonas spp.; 0.25 ppm, week 9): 44 PPM
Recovery of Ammonium Nitrogen (Nitrosomonas spp.; 0.25 ppm, week 9): 171 PPM
Concentration of nitrate nitrogen (Nitrosomonas spp.; 0.25 ppm, week 12): 57 PPM
Recovery of Ammonium Nitrogen (Nitrosomonas spp.; 0.25 ppm, week 12): 168 PPM
Concentration of nitrate nitrogen (Nitrosomonas spp.; 0.25 ppm, week 16): 121 PPM
Recovery of Ammonium Nitrogen (Nitrosomonas spp.; 0.25 ppm, week 16): 111 PPM
Concentration of nitrate nitrogen (Nitrosomonas spp.; 0.25 ppm, week 20): 187 PPM
Recovery of Ammonium Nitrogen (Nitrosomonas spp.; 0.25 ppm, week 20): 4 PPM
Concentration of nitrate nitrogen (Nitrosomonas spp.; 0.50 ppm, week 0): 19 PPM
Recovery of Ammonium Nitrogen (Nitrosomonas spp.; 0.50 ppm, week 0): 194 PPM
Concentration of nitrate nitrogen (Nitrosomonas spp.; 0.50 ppm, week 1): 22 PPM
Recovery of Ammonium Nitrogen (Nitrosomonas spp.; 0.50 ppm, week 1): 167 PPM
Concentration of nitrate nitrogen (Nitrosomonas spp.; 0.50 ppm, week 2): 21 PPM
Recovery of Ammonium Nitrogen (Nitrosomonas spp.; 0.50 ppm, week 2): 185 PPM
Concentration of nitrate nitrogen (Nitrosomonas spp.; 0.50 ppm, week 4): 18 PPM
Recovery of Ammonium Nitrogen (Nitrosomonas spp.; 0.50 ppm, week 4): 170 PPM
Concentration of nitrate nitrogen (Nitrosomonas spp.; 0.50 ppm, week 7): 18 PPM
Recovery of Ammonium Nitrogen (Nitrosomonas spp.; 0.50 ppm, week 7): 197 PPM
Concentration of nitrate nitrogen (Nitrosomonas spp.; 0.50 ppm, week 9): 26 PPM
Recovery of Ammonium Nitrogen (Nitrosomonas spp.; 0.50 ppm, week 9): 196 PPM
Concentration of nitrate nitrogen (Nitrosomonas spp.; 0.50 ppm, week 12): 39 PPM
Recovery of Ammonium Nitrogen (Nitrosomonas spp.; 0.50 ppm, week 12): 191 PPM
Concentration of nitrate nitrogen (Nitrosomonas spp.; 0.50 ppm, week 16): 28 PPM
Recovery of Ammonium Nitrogen (Nitrosomonas spp.; 0.50 ppm, week 16): 205 PPM
Concentration of nitrate nitrogen (Nitrosomonas spp.; 0.50 ppm, week 20): 45 PPM
Recovery of Ammonium Nitrogen (Nitrosomonas spp.; 0.50 ppm, week 20): 176 PPM
Effectiveness as nitrification inhibitor, in words (Nitrosomonas spp.; 20 weeks study): second most effective inhibitor
Concentration of nitrite nitrogen (Nitrobacter spp.; 0.10 ppm, week 0): 7 ppm
Concentration of nitrite nitrogen (Nitrobacter spp.; 0.10 ppm, week 1): 5 ppm
Concentration of nitrite nitrogen (Nitrobacter spp.; 0.10 ppm, week 2): 7 ppm
Concentration of nitrite nitrogen (Nitrobacter spp.; 0.10 ppm, week 4): 6 ppm
Concentration of nitrite nitrogen (Nitrobacter spp.; 0.10 ppm, week 7): -4 ppm
Concentration of nitrite nitrogen (Nitrobacter spp.; 0.10 ppm, week 9): 25 ppm
Concentration of nitrite nitrogen (Nitrobacter spp.; 0.10 ppm, week 12): 7 ppm
Concentration of nitrite nitrogen (Nitrobacter spp.; 0.10 ppm, week 16): 7 ppm
Concentration of nitrite nitrogen (Nitrobacter spp.; 0.10 ppm, week 20): 11 ppm
Concentration of nitrite nitrogen (Nitrobacter spp.; 0.25 ppm, week 0): 8 ppm
Concentration of nitrite nitrogen (Nitrobacter spp.; 0.25 ppm, week 1): 5 ppm
Concentration of nitrite nitrogen (Nitrobacter spp.; 0.25 ppm, week 2): 3 ppm
Concentration of nitrite nitrogen (Nitrobacter spp.; 0.25 ppm, week 4): 7 ppm
Concentration of nitrite nitrogen (Nitrobacter spp.; 0.25 ppm, week 7): -1 ppm
Concentration of nitrite nitrogen (Nitrobacter spp.; 0.25 ppm, week 9): 7 ppm
Concentration of nitrite nitrogen (Nitrobacter spp.; 0.25 ppm, week 12): 9 ppm
Concentration of nitrite nitrogen (Nitrobacter spp.; 0.25 ppm, week 16): 2 ppm
Concentration of nitrite nitrogen (Nitrobacter spp.; 0.25 ppm, week 20): 47 ppm
Concentration of nitrite nitrogen (Nitrobacter spp.; 0.50 ppm, week 0): 9 ppm
Concentration of nitrite nitrogen (Nitrobacter spp.; 0.50 ppm, week 1): 3 ppm
Concentration of nitrite nitrogen (Nitrobacter spp.; 0.50 ppm, week 2): 3 ppm
Concentration of nitrite nitrogen (Nitrobacter spp.; 0.50 ppm, week 4): 14 ppm
Concentration of nitrite nitrogen (Nitrobacter spp.; 0.50 ppm, week 7): 4 ppm
Concentration of nitrite nitrogen (Nitrobacter spp.; 0.50 ppm, week 9): -1 ppm
Concentration of nitrite nitrogen (Nitrobacter spp.; 0.50 ppm, week 12): 1 ppm
Concentration of nitrite nitrogen (Nitrobacter spp.; 0.50 ppm, week 16): 8 ppm
Concentration of nitrite nitrogen (Nitrobacter spp.; 0.50 ppm, week 20): 14 ppm
